Measured values as given in patent US20160016998A1, “HIGH-AFFINITY MATRIPTASE INHIBITORS” (MERCK PATENT GMBH, priority 2013, published 2016).
Read-outs that look alike come from different tables or passages of the source. Bridge positions count the residues as written; N and C are the ends. Peptide text beside a SMILES is read from it.

Tests used:
[1] = disulfide bond, air (O2), (NH4)2CO3 buffer pH 8.4, water, 168.0 h
matriptase = molecular target: T1, matriptase (Homo sapiens, UniProt Q9Y5Y6); assay: Matriptase enzyme inhibition assay with chromogenic substrate Boc-QAR-pNA; type: biochemical; settings: for matriptase affinity / inhibitor potency in words: enzyme inhibition assays, comparator as worded; for Relative Activity: ratio Ki of compound / Ki of SFTI-1[1,14]; for Sum of Increment Contributions: sum of ΔBG differences of the single modifications
T1 construct: made in house
T1 sequence (Q9Y5Y6 615-855 limits assumed): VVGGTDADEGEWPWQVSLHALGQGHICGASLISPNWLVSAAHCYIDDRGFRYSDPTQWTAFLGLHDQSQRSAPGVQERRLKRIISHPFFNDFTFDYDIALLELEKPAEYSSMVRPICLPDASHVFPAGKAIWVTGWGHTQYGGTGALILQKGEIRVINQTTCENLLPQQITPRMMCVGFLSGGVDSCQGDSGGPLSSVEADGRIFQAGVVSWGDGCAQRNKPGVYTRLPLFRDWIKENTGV
Experimental: (§1) Recombinant production, autocatalytic activation and purification of matriptase were conducted as previously described. Bovine trypsin was purchased from Sigma-Aldrich. Active-site titration and determination of Michaelis-Menten constants KM for the chromogenic substrate Boc-QAR-pNA was performed as reported earlier.
All experiments were performed in triplicate. […] Slopes of the initial reaction velocities (steady-state) were calculated and normalized to the data of the uninhibited enzymatic hydrolysis of Boc-QAR-pNA. The determined v/v0 values were plotted against the concentration of the inhibitor.
(§2) Errors were calculated through propagation of errors (compare Tischler et al.).[17]

Bovine trypsin = molecular target: T2, Bovine trypsin (Bos taurus, UniProt P00760); assay: Trypsin enzyme inhibition assay with chromogenic substrate Boc-QAR-pNA; type: biochemical; settings: pH 7.6
T2 construct: purchased Sigma-Aldrich
T2 sequence (P00760 24-246): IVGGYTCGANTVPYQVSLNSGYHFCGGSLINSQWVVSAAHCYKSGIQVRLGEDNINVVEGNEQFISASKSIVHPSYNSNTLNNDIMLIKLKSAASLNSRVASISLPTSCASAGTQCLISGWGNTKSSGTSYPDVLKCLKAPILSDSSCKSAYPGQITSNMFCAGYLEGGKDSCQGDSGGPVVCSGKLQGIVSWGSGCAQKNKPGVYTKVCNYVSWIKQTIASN
Experimental: as §1
All experiments were performed in triplicate. Active-site titrated matriptase (final concentration: [E]=0.9 nM) or trypsin (final concentration: [E]=0.5 nM) were incubated with the respective inhibitor in different concentrations [I] at pH 7.6 or 8.5 for 30 min. Then, the chromogenic substrate Boc-QAR-pNA (final concentration: [S]=250 μM) was added. The residual proteolytic activity (v/v0) was determined by monitoring the absorption of the corresponding samples in 96-well plates (NUNC, round bottom, clear) at 405 nm in 60 sec intervals over 30 min at RT using the Tecan GENios microplate reader. Slopes of the initial reaction velocities (steady-state) were calculated and normalized to the data of the uninhibited enzymatic hydrolysis of Boc-QAR-pNA. The determined v/v0 values were plotted against the concentration of the inhibitor. The resulting dose-response curves were fitted either by equation 1 or in case of tight-binding inhibition (trypsin: 42; matriptase: 43 at pH 8.5, 44 at pH 7.6 and 8.5) by equation 2 through non-linear regression.
as §2

Row | Compound | ΔBG(x)-ΔBG(SFTI-1[1,14]) (matriptase; matriptase, pH 7.6 (Table 2)) [kcal/mol] | Ki (matriptase; pH 7.6 (Table 2)) [nM] | Relative Activity (matriptase; matriptase, pH 7.6 (Table 2)) | Sum of Increment Contributions (matriptase; matriptase, pH 7.6) [kcal/mol] | Ki (Bovine trypsin) [nM] | Ki (matriptase; pH 8.5 (values in brackets)) [nM] | matriptase affinity / inhibitor potency in words (matriptase; pH 7.6) | other results
1 | CC[C@H](C)[C@@H]1NC(=O)[C@@H]2CCCN2C(=O)[C@@H]2CCCN2C(=O)[C@H](Cn2cc(CN)nn2)NC(=O)[C@H](CO)NC(=O)[C@H](CCCCN)NC(=O)[C@H]([C@@H](C)O)NC(=O)[C@@H](NC(=O)[C@H](CCCNC(=N)N)NC(=O)CN)CSSC[C@@H](C(=O)N[C@@H](Cc2ccccc2)C(=O)N2CCC[C@H]2C(=O)N[C@@H](CC(=O)O)C(=O)O)NC1=O | – | – | – | – | – | – | – | ring closure, yield of all isomers ([1]; from CC[C@H](C)[C@H](NC(=O)[C@@H]1CCCN1C(=O)[C@@H]1CCCN1C(=O)[C@H](Cn1cc(CN)nn1)NC(=O)[C@H](CO)NC(=O)[C@H](CCCCN)NC(=O)[C@@H](NC(=O)[C@H](CS)NC(=O)[C@H](CCCNC(=N)N)NC(=O)CN)[C@@H](C)O)C(=O)N[C@@H](CS)C(=O)N[C@@H](Cc1ccccc1)C(=O)N1CCC[C@H]1C(=O)N[C@@H](CC(=O)O)C(=O)O, 0.63 mM, 4 steps): 17%
2 | CC[C@H](C)[C@@H]1NC(=O)[C@H](CO)NC(=O)[C@H](CCCCN)NC(=O)[C@H]([C@@H](C)O)NC(=O)[C@@H](NC(=O)[C@H](CCCNC(=N)N)NC(=O)CN)CSSC[C@@H](C(=O)N[C@@H](Cc2ccccc2)C(=O)N2CCC[C@H]2C(=O)N[C@@H](CC(=O)O)C(=O)O)NC(=O)[C@H](CCCCN)NC(=O)[C@@H]2CCCN2C(=O)[C@@H]2CCCN2C1=O | – | – | – | – | – | – | – | ring closure, yield of all isomers ([1]; from CC[C@H](C)[C@H](NC(=O)[C@H](CO)NC(=O)[C@H](CCCCN)NC(=O)[C@@H](NC(=O)[C@H](CS)NC(=O)[C@H](CCCNC(=N)N)NC(=O)CN)[C@@H](C)O)C(=O)N1CCC[C@H]1C(=O)N1CCC[C@H]1C(=O)N[C@@H](CCCCN)C(=O)N[C@@H](CS)C(=O)N[C@@H](Cc1ccccc1)C(=O)N1CCC[C@H]1C(=O)N[C@@H](CC(=O)O)C(=O)O, […], 29 steps): 3.9%
3 | CC[C@H](C)[C@@H]1NC(=O)[C@H](CO)NC(=O)[C@H](CCCCN)NC(=O)[C@H]([C@@H](C)O)NC(=O)[C@@H](NC(=O)[C@H](CCCNC(=N)N)NC(=O)CN)CSSC[C@@H](C(=O)N[C@@H](Cc2ccccc2)C(=O)N2CCC[C@H]2C(=O)N[C@@H](CC(=O)O)C(=O)O)NC(=O)[C@H](Cn2cc(CN)nn2)NC(=O)[C@@H]2CCCN2C(=O)[C@@H]2CCCN2C1=O | – | – | – | – | – | – | – | ring closure, yield of all isomers ([1]; from CC[C@H](C)[C@H](NC(=O)[C@H](CO)NC(=O)[C@H](CCCCN)NC(=O)[C@@H](NC(=O)[C@H](CS)NC(=O)[C@H](CCCNC(=N)N)NC(=O)CN)[C@@H](C)O)C(=O)N1CCC[C@H]1C(=O)N1CCC[C@H]1C(=O)N[C@@H](Cn1cc(CN)nn1)C(=O)N[C@@H](CS)C(=O)N[C@@H](Cc1ccccc1)C(=O)N1CCC[C@H]1C(=O)N[C@@H](CC(=O)O)C(=O)O, 0.63 mM, 22 steps): 21.2%

Second part, led by results:

Row | ΔBG(x)-ΔBG(SFTI-1[1,14]) (matriptase; matriptase, pH 7.6 (Table 2)) [kcal/mol] | Ki (matriptase; pH 7.6 (Table 2)) [nM] | Relative Activity (matriptase; matriptase, pH 7.6 (Table 2)) | Sum of Increment Contributions (matriptase; matriptase, pH 7.6) [kcal/mol] | Ki (Bovine trypsin) [nM] | Ki (matriptase; pH 8.5 (values in brackets)) [nM] | Compound | matriptase affinity / inhibitor potency in words (matriptase; pH 7.6) | other results
4 | 1.22 ± 0.096 | 89.5 ± 11.1 | 0.13 | 1.65 ± 0.14 | 9.2 ± 2.1 | – | CC[C@H](C)[C@@H]1NC(=O)[C@H](CO)NC(=O)[C@H](CCCCN)NC(=O)[C@H]([C@@H](C)O)NC(=O)[C@@H](NC(=O)[C@H](CCCNC(=N)N)NC(=O)CN)CSSC[C@@H](C(=O)N[C@@H](Cc2c[nH]cn2)C(=O)N2CCC[C@H]2C(=O)N[C@@H](CC(=O)O)C(=O)O)NC(=O)[C@H](Cn2cc(CN)nn2)NC(=O)[C@@H]2CCCN2C(=O)[C@@H]2CCCN2C1=O [Compound 42] | further increased matriptase affinity compared to SFTI-1[1,14] derivatives 9, 18, and 22 | ring closure, yield of all isomers ([1]; from CC[C@H](C)[C@H](NC(=O)[C@H](CO)NC(=O)[C@H](CCCCN)NC(=O)[C@@H](NC(=O)[C@H](CS)NC(=O)[C@H](CCCNC(=N)N)NC(=O)CN)[C@@H](C)O)C(=O)N1CCC[C@H]1C(=O)N1CCC[C@H]1C(=O)N[C@@H](Cn1cc(CN)nn1)C(=O)N[C@@H](CS)C(=O)N[C@@H](Cc1c[nH]cn1)C(=O)N1CCC[C@H]1C(=O)N[C@@H](CC(=O)O)C(=O)O, 0.63 mM, 30 steps): 1.2%
5 | 2.46 ± 0.096 | 11 | 0.016 | 2.29 ± 0.14 | 11.2 ± 2 | 1.1 | CC[C@H](C)[C@@H]1NC(=O)[C@H](CO)NC(=O)[C@H](CCCCN)NC(=O)[C@H]([C@@H](C)O)NC(=O)[C@@H](NC(=O)[C@H](CCCNC(=N)N)NC(=O)CN)CSSC[C@@H](C(=O)N[C@@H](Cc2c[nH]cn2)C(=O)N2CCC[C@H]2C(=O)N[C@@H](CC(=O)O)C(=O)O)NC(=O)[C@H](CCCNC(=N)N)NC(=O)[C@@H]2CCCN2C(=O)[C@@H]2CCCN2C1=O [Compound 43] (H-GRCTKSIPPRCHPD-OH; disulfide 3-11; N-terminus assumed) | further increased matriptase affinity compared to SFTI-1[1,14] derivatives 9, 18, and 22 | sum of individual favorable contributions to ΔBG (matriptase; contributions of compounds 18 and 22): 2.29 ± 0.14 kcal/mol; difference of the free energies of binding/dissociation ΔBG between compound and SFTI-1[1,14] (matriptase; matriptase, pH 7.6): 2.46 ± 0.096 kcal/mol
6 | 2.8 ± 0.14 | 6.2 ± 1.2 | 0.009 | – | 38 ± 11.1 | 2.3 ± 0.8 | CC[C@H](C)[C@@H]1NC(=O)[C@H](CO)NC(=O)[C@H](CCCCN)NC(=O)[C@H]([C@@H](C)O)NC(=O)[C@@H](NC(=O)[C@H](CCCNC(=N)N)NC(=O)CN)CSSC[C@@H](C(=O)N[C@@H](Cc2c[nH]cn2)C(N)=O)NC(=O)[C@H](CCCNC(=N)N)NC(=O)[C@@H]2CCCN2C(=O)[C@@H]2CCCN2C1=O [Compound 44] (H-GRCTKSIPPRCH-NH2; disulfide 3-11; N-terminus assumed) | – | selectivity towards matriptase over trypsin (matriptase; pH 7.6): 6 fold
